According to patent publication EP4667482A1, “SALT OF DIPEPTIDE COMPOUND, PREPARATION METHOD THEREFOR, AND USE THEREOF” (Zhejiang Huahai Pharmaceutical Co., Ltd., priority 2023, dated 2024):
Converted amounts (≈) assume the structure as drawn. Counter-ions that a name gives are not always drawn. Like-named read-outs stand apart in the source and are kept apart here.

What was measured:
[1] = Blood drug level in the rat deep vein thrombosis model
Experimental: Preparation of solution: An appropriate amount of Form I was weighed, dissolved in a vehicle (0.5% (W/V) Natrosol™ 250 HX solution containing 0.1% (W/V) L(+)-tartaric acid) to formulate into the required concentration and then stirred uniformly, so that the drug was administered according to the predetermined dose.
Procedure: Rats were acclimatized for 3 days and randomly divided into three groups: model group, positive control group/subject group and bridging group, with 8 to 10 rats in each group. […] Rats in each group were anesthetized with urethane (20%, 5 mL/kg) via intraperitoneal injection. The abdominal cavity was exposed, the vena cava was bluntly separated, and two surgical sutures of 8 to 10 cm in length were placed under the blood vessels, both 1 cm apart. When the modeling time of each group was reached, rabbit thromboplastin (0.02 mg/kg) was injected into the left femoral vein, and the two sutures were knotted 10 s later, and the knotted portion of the suture was cut with ophthalmic scissors after 1 h. The thrombus was removed and weighed.

[2] = test system: Rats model of deep vein thrombosis; experiment: Rat model of deep vein thrombosis (thrombus weight); assay type: in vivo, SD rats
Description: Experimental animals: SD rats (body weight 220 to 250 g, sex: male)
The thrombus was removed and weighed.

[3] = Stability at room temperature (10 days); assay type: physicochemical
[4] = Moisture adsorption / hygroscopicity (DVS); assay type: physicochemical; conditions: for Hygroscopicity: result in words
Solubility determination = assay type: physicochemical; conditions: for aqueous solubility: water, result in words
[5] = Accelerated stability test at 25 ± 2 °C, 60 ± 5% humidity; assay type: physicochemical
Experimental: The accelerated stability test data of the Form I at T = 25 ± 2 °C, 60 ± 5% humidity are as follows: […]

[6] = Experimental: Experimental animals: SD rats (body weight 200 to 300 g, sex: half of male and half of female)
The doses of 5, 10 and 20 mg/kg were administered by gavage, and blood was collected from the jugular vein at 5 min, 10 min, 20 min, 30 min, 1 h, 2 h, 4 h, 6 h, 8 h, 12 h and 24 h after the administration of the drug, processed, and analyzed for blood drug level by LC-MS/MS.
Data were processed using Phoenix WinNonlin 6.4 non-compartmental model to calculate the pharmacokinetic parameters of rats after drug administration, including t1/2, AUC0-t, AUC0-∞, Cl/F or Clss/F or Cl, Vz/F or Vss, MRT, Cmax, C5min, Tmax, and Cmin, Cavg, and AUC0-τ for multiple administrations to reach steady state, etc.

[7] = Solid-state stability of Form III (mechanical milling; storage at 60 °C sealed); assay type: physicochemical
[8] = 0.1 mg/kg/h, intravenous infusion

## CC(C)C[C@@H](NCC(=O)O)C(=O)N1CCC[C@H]1C(=O)NCc1ccc(C(=N)N)cc1 [Compound V]
[1]; intravenous infusion of 0.1 mg/kg/h compound V
  Blood drug level: 174.2 ± 51.8 ng/mL
[2]; [8]
  Thrombosis inhibition rate (%): 48.2%
  Thrombus weight: 36.8 ± 6.6 mg
[2]; intravenous infusion of 0.1 mg/kg/h in rats
  antithrombotic effect compared with oral administration of 5 mg/kg Form I: comparable

## CCCCCCOC(=O)NC(=N)c1ccc(CNC(=O)[C@@H]2CCCN2C(=O)[C@@H](CC(C)C)NCC(=O)OCC)cc1 [Form B of the monohydrochloride]
[3]
  Stability at room temperature (10 days): White powder, crystalline form remains unchanged (10 days)
[4]
  Moisture adsorption content (wt%): 3.0 wt%
  Hygroscopicity: Hygroscopic

## CCCCCCOC(=O)NC(=N)c1ccc(CNC(=O)[C@@H]2CCCN2C(=O)[C@@H](CC(C)C)NCC(=O)OCC)cc1 [Form I]
[1]; level of compound V after oral 2.5 mg/kg Form I, 2.5 mg/kg
  Blood drug level: 190.1 ng/mL
[1]; level of compound V after oral 2.5 mg/kg Form I, listed as Crystal form I, 2.5 mg/kg
  Blood drug level: 190.1 ± 62.9 ng/mL
[1]; level of compound V after oral 5 mg/kg Form I, 5 mg/kg
  Blood drug level: 181.3 ng/mL
[1]; level of compound V after oral 10 mg/kg Form I, 10 mg/kg
  Blood drug level: 341.9 ng/mL
[1]; level of compound V after oral 10 mg/kg Form I, listed as Crystal form I, 10 mg/kg
  Blood drug level: 341.9 ± 46.4 ng/mL
[1]; level of compound V after oral 20 mg/kg Form I, 20 mg/kg
  Blood drug level: 609.7 ng/mL
[1]; level of compound V after oral 20 mg/kg Form I, listed as Crystal form I, 20 mg/kg
  Blood drug level: 609.7 ± 174.0 ng/mL
Solubility determination; AC (Acetic acid)
  Solubility: >250 mg/mL
Solubility determination; ACN
  Solubility: >250 mg/mL
Solubility determination; DMSO
  Solubility: >250 mg/mL
Solubility determination; Diox
  Solubility: ~125 mg/mL (≈ 218 mM)
Solubility determination; EA
  Solubility: <0.3 mg/mL
Solubility determination; EtOH
  Solubility: >250 mg/mL
Solubility determination; Hept
  Solubility: <0.3 mg/mL
Solubility determination; IPA
  Solubility: ~167 mg/mL (≈ 291 mM)
Solubility determination; MEK
  Solubility: ~1.6 mg/mL (≈ 2.79 mM)
Solubility determination; MTBE
  Solubility: <0.3 mg/mL
Solubility determination; NBA
  Solubility: ~167 mg/mL (≈ 291 mM)
Solubility determination; THF
  Solubility: ~11.1 mg/mL (≈ 19.3 mM)
Solubility determination; Tol
  Solubility: <0.3 mg/mL
Solubility determination; Water
  Solubility: >250 mg/mL
Solubility determination; acetonitrile and dichloromethane
  Solubility: readily soluble
Solubility determination; buffer solutions with different pH values (1.2 to 13.0)
  Solubility: Highly soluble
Solubility determination; n-heptane and N, N-diisopropyl ethylamine
  Solubility: almost insoluble or insoluble
[5]; 0 month
  Content (HPLC): 99.6%
  Hydrolyzed impurities: 0.19%
  Moisture: 0.4%
  Other individual impurities: <RL(0.05%)
  Total impurities: 0.42%
[5]; 1 month
  Content (HPLC): 99.3%
  Hydrolyzed impurities: 0.27%
  Moisture: 0.5%
  Other individual impurities: <RL(0.05%)
  Total impurities: 0.54%
[5]; 2 months
  Content (HPLC): 100.3%
  Hydrolyzed impurities: 0.28%
  Moisture: 0.3%
  Other individual impurities: <RL(0.05%)
  Total impurities: 0.56%
[5]; 3 months
  Content (HPLC): 100.3%
  Hydrolyzed impurities: 0.45%
  Moisture: 0.4%
  Other individual impurities: <RL(0.05%)
  Total impurities: 0.72%
[5]; 6 months
  Content (HPLC): 99.6%
  Hydrolyzed impurities: 0.51%
  Moisture: 0.3%
  Other individual impurities: <RL(0.05%)
  Total impurities: 1.02%
[6]; gavage 5 mg/kg, Female
  AUC0-t (h·ng/mL): 850+226 h·ng/mL
  AUC0-∞: 854 ± 224 ng·h/mL
  Cl/F: 104 ± 33 mL/min/kg
  Cmax: 522 ± 170 ng/mL
  MRT0-t: 1.6 ± 0.34 h
  MRT0-∞ (h): 1.7+0.38 h
  Tmax: 0.59 ± 0.29 h
  V2/F: 13.9 ± 6.75 L/kg
  t1/2: 1.5 ± 0.26 h
[6]; gavage 5 mg/kg, Male
  AUC0-t: 604 ± 182 ng·h/mL
  AUC0-∞: 606 ± 181 ng·h/mL
  Cl/F: 147 ± 41.7 mL/min/kg
  Cmax: 344 ± 163 ng/mL
  MRT0-t: 1.6 ± 0.20 h
  MRT0-∞: 1.7 ± 0.21 h
  Tmax: 0.66 ± 0.23 h
  V2/F: 18.1 ± 6.08 L/kg
  t1/2: 1.4 ± 0.32 h
[6]; gavage 5 mg/kg, Total
  AUC0-t: 727 ± 231 ng·h/mL
  AUC0-∞: 730 ± 231 ng·h/mL
  Cl/F: 126 ± 41.7 mL/min/kg
  Cmax: 433 ± 181 ng/mL
  MRT0-t: 1.6 ± 0.26 h
  MRT0-∞: 1.7 ± 0.28 h
  Tmax: 0.62 ± 0.24 h
  V2/F: 16.0 ± 6.37 L/kg
  t1/2: 1.5 ± 0.27 h
[6]; gavage 10 mg/kg, Female
  AUC0-t: 2060 ± 783 ng·h/mL
  AUC0-∞: 1830 ng·h/mL
  Cl/F: 92.3 mL/min/kg
  Cmax: 1120 ± 385 ng/mL
  MRT0-t: 1.6 ± 0.27 h
  MRT0-∞: 1.6 h
  Tmax: 0.75 ± 0.29 h
  V2/F: 20.1 L/kg
  t1/2: 2.6 h
[6]; gavage 10 mg/kg, Male
  AUC0-t: 1460 ± 324 ng·h/mL
  AUC0-∞: 1460 ± 324 ng·h/mL
  Cl/F: 118 ± 26.5 mL/min/kg
  Cmax: 934 ± 299 ng/mL
  MRT0-t: 1.6 ± 0.24 h
  MRT0-∞: 1.7 ± 0.20 h
  Tmax: 0.63 ± 0.25 h
  V2/F: 46.9 ± 24.6 L/kg
  t1/2: 4.5 ± 1.8 h
[6]; gavage 10 mg/kg, Total
  AUC0-t: 1760 ± 642 ng·h/mL
  AUC0-∞: 1590 ± 346 ng·h/mL
  Cl/F: 110 ± 25.5 mL/min/kg
  Cmax: 1030 ± 335 ng/mL
  MRT0-t: 1.6 ± 0.24 h
  MRT0-∞: 1.7 ± 0.26 h
  Tmax: 0.69 ± 0.26 h
  V2/F: 38.0 ± 23.6 L/kg
  t1/2: 3.9 ± 1.8 h
[6]; gavage 20 mg/kg, Female
  AUC0-t: 3840 ± 446 ng·h/mL
  AUC0-∞ (h·ng/mL): 3850+446 h·ng/mL
  Cl/F: 87.5 ± 10.2 mL/min/kg
  Cmax: 2170 ± 380 ng/mL
  MRT0-t (h): 1.7+0.19 h
  MRT0-∞: 1.8 ± 0.18 h
  Tmax: 0.50 ± 0.0 h
  V2/F: 30.8 ± 5.67 L/kg
  t1/2: 4.0 ± 0.35 h
[6]; gavage 20 mg/kg, Male
  AUC0-t (h·ng/mL): 4650+2440 h·ng/mL
  AUC0-∞: 4660 ± 2440 ng·h/mL
  Cl/F: 83 ± 29.8 mL/min/kg
  Cmax: 2230 ± 531 ng/mL
  MRT0-t: 1.8 ± 0.33 h
  MRT0-∞: 1.8 ± 0.32 h
  Tmax: 0.88 ± 0.25 h
  V2/F: 26.6 ± 17.0 L/kg
  t1/2: 3.7 ± 1.7 h
[6]; gavage 20 mg/kg, Total
  AUC0-t: 4250 ± 1680 ng·h/mL
  AUC0-∞: 4250 ± 1680 ng·h/mL
  Cl/F: 85.3 ± 20.8 mL/min/kg
  Cmax: 2200 ± 429 ng/mL
  MRT0-t: 1.8 ± 0.25 h
  MRT0-∞: 1.8 ± 0.25 h
  Tmax: 0.69 ± 0.26 h
  V2/F: 28.7 ± 11.9 L/kg
  t1/2: 3.9 ± 1.2 h
[4]; 80% RH
  water absorption (DVS): 28.8%
[4]; 90% humidity
  water absorption (DVS): 49.9%
[4]; after DVS test
  solid form after DVS test: converted to amorphous form
[4]; high humidity
  behaviour of the sample at high humidity (DVS): undergoes deliquescence
[4]
  Hygroscopicity: Hygroscopic
[2]; 2.5 mg/kg, oral gavage
  Thrombosis inhibition rate (%): 27.0%
  Thrombus weight: 51.9 ± 8.3 mg
[2]; 5 mg/kg, oral gavage
  Thrombosis inhibition rate (%): 54.7%
  Thrombus weight: 32.1 ± 5.7 mg
[2]; 10 mg/kg, oral gavage
  Thrombus weight: 21.3 ± 5.1 mg
[2]; 20 mg/kg, oral gavage
  Thrombosis inhibition rate (%): 79.7%
  Thrombus weight: 14.4 ± 3.6 mg
[2]; at the same dose
  antithrombotic efficacy compared with dabigatran etexilate: basically equivalent

## CCCCCCOC(=O)N=C(N)c1ccc(NCc2nc3cc(C(=O)N(CCC(=O)OCC)c4ccccn4)ccc3n2C)cc1 [Dabigatran etexilate, reference compound]
[2]; 5 mg/kg, oral gavage
  Thrombosis inhibition rate (%): 69.9%
  Thrombus weight: 21.4 ± 8.2 mg

## CCCCCCOC(=O)NC(=N)c1ccc(CNC(=O)[C@@H]2CCCN2C(=O)[C@@H](CC(C)C)NCC(=O)OCC)cc1 [dihydrochloride]
Solubility determination
  aqueous solubility: excellent aqueous solubility

## CCCCCCOC(=O)NC(=N)c1ccc(CNC(=O)[C@@H]2CCCN2C(=O)[C@@H](CC(C)C)NCC(=O)OCC)cc1 [Form A of the monohydrochloride]
[3]
  Stability at room temperature (10 days): White powder, crystalline form remains unchanged (10 days)
[4]
  Moisture adsorption content (wt%): 0.5 wt%
  Hygroscopicity: Slightly hygroscopic

## CCCCCCOC(=O)NC(=N)c1ccc(CNC(=O)[C@@H]2CCCN2C(=O)[C@@H](CC(C)C)NCC(=O)OCC)cc1 [Form III]
[7]; 60 °C/sealed condition for 7 days
  crystalline form after storage: converted to Form I
[7]; after storage at 60 °C/sealed condition for 7 days
  purity: 89.35%
[7]; before storage at 60 °C/sealed condition
  purity: 95.81%
[7]; mechanical milling for 2 minutes
  crystalline form after mechanical milling: converted to Form I
[4]; 80% RH
  water absorption (DVS): 28.8%
[4]; 90% humidity
  water absorption (DVS): 50.0%

## CCCCCCOC(=O)NC(=N)c1ccc(CNC(=O)[C@@H]2CCCN2C(=O)[C@@H](CC(C)C)NCC(=O)OCC)cc1
Solubility determination
  aqueous solubility: insoluble in water
